# Values of other authors, collected in US20250275948A1, “(N-[4-(2,3-DIHYDRO-1H-INDEN-5-YL)-1,3-THIAZOL-2-YL]-2-[4-METHYL-4-(NAPHTHALEN-2-YL)-2,5-DIOXOIMIDAZOLIDIN-1-YL]ACETAMIDE AS STABILIZER OF CLOCK:BMAL1 INTERACTION FOR THE TREATMENT OF CIRCADIAN RHYTHM DISEASES AND DISORDERS” (KOC UNIVERSITESI, priority 2022, published 2025).
# What was measured:
# Conditions in all cases: cited from earlier work
# REV-ERB = tested on: REV-ERB
# CRYs = tested on: CRYs
# gluconeogenesis = tested on: gluconeogenesis
Structure (SMILES),effect on REV-ERB repressor function (REV-ERB),effect on stability of CRYs (CRYs),effect on gluconeogenesis (gluconeogenesis)
CC(C)(C)OC(=O)CN(Cc1ccc(Cl)cc1)Cc1ccc([N+](=O)[O-])s1 [GSK4112],enhance REV-ERB's repressor function toward Bmal1 transcription,–,–
CS(=O)(=O)N(Cc1ccco1)CC(O)Cn1c2ccccc2c2ccccc21 (stereo not drawn) [KL001],–,increases stability of the CRYs,suppresses the gluconeogenesis
